From patent US6569891B1, “Antihypertensive compound from Caesalpinia brasiliensis” (Brigham Young University, priority 2002, dated 2003)

What was measured:
[1] = tested on: hypertensive Sprague-Dawley rats; test: antihypertensive activity, sample in drinking water of hypertensive rats, tail cuff systolic blood pressure; assay type: in vivo; conditions: 100 μg/ml in drinking water, after 36 hours; for reduction in systolic blood pressure: tail cuff
Description: The crude extract and HPLC fractions prepared according to the procedure of Example 1 (with a preparative-scale (21.4×250 mm) column), were tested for antihypertensive activity by adding the sample to be tested at a concentration of 100 μg/ml to the drinking water of hypertensive Sprague-Dawley rats. After 36 hours, systolic blood pressures were measured with a Harvard tail cuff apparatus attached to a Beckman R511A recorder.

[2] = conversion of brazilin in hot water; assay type: physicochemical

Compound | reduction in systolic blood pressure [1] | systolic blood pressure after treatment ([1]; brought into the normal range) | stability in hot water [2]
Oc1cc2c(cc1O)C1c3ccc(O)c(O)c3OCC1(O)C2 (single isomer, unassigned) [Peak B, haematoxylin] | ~12% |  | 
Oc1cc2c(cc1O)C13c4ccc(O)c(O)c4OCC1(C2)OC1(O)CC=C2CC4(O)COc5c(ccc(O)c5O)C4=C2C13 (single isomer, unassigned) [peak A] | about 35% | 110-120 mm Hg | 
Oc1ccc2c(c1)OC[C@]1(O)Cc3cc(O)c(O)cc3[C@H]21 [Brazilin, brazilin] |  |  | slowly converted to haematoxylin
